The structures appear in SMILES notation.

Among the data in patent US20220119411A1, “IMMUNOMODULATORS, COMPOSITIONS AND METHODS THEREOF” (BETTA PHARMACEUTICALS CO., LTD, priority 2018, published 2022) are IC50 values, retold here.

T1 sequence (Q9NZQ7 19-238): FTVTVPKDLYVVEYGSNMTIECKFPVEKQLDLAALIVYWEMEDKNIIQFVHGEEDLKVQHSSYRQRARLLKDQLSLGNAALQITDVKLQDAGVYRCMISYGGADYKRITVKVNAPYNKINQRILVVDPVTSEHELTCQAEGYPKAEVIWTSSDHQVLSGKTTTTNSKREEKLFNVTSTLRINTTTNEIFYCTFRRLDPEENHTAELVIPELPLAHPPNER

This experiment concerns the target T1, PD-1/PD-L1 protein/protein interaction (Homo sapiens, UniProt Q9NZQ7).
T1 construct: Recombinant human PD-L1 protein (19-238) with a His-tag at the C-terminus; purchased AcroBiosystems PD1-H5229 (PD-L1); PD1-H5257 (PD-1)
Nature of the experiment: PD-1/PD-L1 homogenous time-resolved fluorescence (HTRF) binding assay. As to conditions: recombinant human PD-L1 (19-238)-His 10 nM, human PD-1 (25-167)-Fc 3 nM, 25° C., PBS pH 7.4. The protocol: Resolved Fluorescence (HTRF) Binding Assay
The assays were conducted in a standard black 384-well polystyrene plate with a final volume of 20 μL. Inhibitors were first serially diluted in DMSO and then added to the plate wells before the addition of other reaction components. The final concentration of DMSO in the assay was 1%. The assays were carried out at 25° C. in the PBS buffer (pH 7.4) with 0.05% Tween-20 and 0.1% BSA. Recombinant human PD-L1 protein (19-238) with a His-tag at the C-terminus was purchased from AcroBiosy stems (PD1-H5229). Recombinant human PD-1 protein (25-167) with Fc tag at the C-terminus was also purchased from AcroBiosystems (PD1-H5257). PD-L1 and PD-1 proteins were diluted in the assay buffer and 10 μL was added to the plate well. Plates were centrifuged and proteins were preincubated with inhibitors for 40 min. The incubation was followed by the addition of 10 μL of HTRF detection buffer supplemented with Europium cryptate-labeled anti-human IgG (PerkinElmer-AD0212) specific for Fc and anti-His antibody conjugated to SureLight®—Allophycocyanin (APC, PerkinElmer-AD0059H). After centrifugation, the plate was incubated at 25° C. for 60 min. Before reading on a PHERAstar FS plate reader (665 nm/620 nm ratio). Final concentrations in the assay were—3 nM PD1, 10 nM PD-L1, 1 nM europium anti-human IgG and 20 nM anti-His-Allophycocyanin. IC50 determination was performed by fitting the curve of percent control activity versus the log of the inhibitor concentration using the GraphPad Prism 5.0 software.
Data obtained for the Example compounds using the PD-1/PD-L1 homogenous time-resolved fluorescence (HTRF) binding assay described in Example A is provided in Table 2.
Take `Cn1c(C(=O)N2CCCc3c(-c4cccc(OCCN5CCOCC5)c4)cccc32)nc2c1CN(CC(=O)O)CC2` [Example 51, 2-(3-methyl-2-(5-(3-(2-morpholinoethoxy)phenyl)-1,2,3,4-tetrahydroquinoline-1-carbonyl)-3,4,6,7-tetrahydro-5H-imidazo[4,5-c]pyridin-5-yl)acetic acid]: the half-maximal inhibitory concentration (IC50) (commonly the midpoint of a concentration-inhibition curve) is not above 25 nM.

Turning to `Cn1c(C(=O)N2CCCc3c(-c4cccc(OCCN5CCOCC5)c4)cccc32)nc2c1CCN(CC(=O)O)C2` [Example 52, 2-(1-methyl-2-(5-(3-(2-morpholinoethoxy)phenyl)-1,2,3,4-tetrahydroquinoline-1-carbonyl)-1,4,6,7-tetrahydro-5H-imidazo[4,5-c]pyridin-5-yl)acetic acid], the IC50 was not above 25 nM.

Consider `O=C(c1nc2c(o1)CN(CCO)CC2)N1CCCc2c(-c3cccc(OCCN4CCOCC4)c3)cccc21` [Example 53, (5-(2-hydroxyethyl)-4,5,6,7-tetrahydrooxazolo[5,4-c]pyridin-2-yl)(5-(3-(2-morpholinoethoxy)phenyl)-3,4-dihydroquinolin-1(2H)-yl)methanone], for which the IC50 was in the range of 25 to 100 nM.

With `O=C(O)CCN1CCc2nc(C(=O)N3CCCc4c(-c5cccc(OCCN6CCOCC6)c5)cccc43)oc2C1` [Example 54, 3-(2-(5-(3-(2-morpholinoethoxy)phenyl)-1,2,3,4-tetrahydroquinoline-1-carbonyl)-6,7-dihydrooxazolo[5,4-c]pyridin-5(4H)-yl)propanoic acid], the IC50 was 100 to 200 nM.

Consider `O=C(O)CN1CCc2nc(C(=O)N3CCc4c(-c5ccc6c(c5)OCCO6)cccc43)sc2C1` [Example 55, 2-(2-(4-(2,3-dihydrobenzo[b][1,4]dioxin-6-yl)indoline-1-carbonyl)-6,7-dihydrothiazolo[5,4-c]pyridin-5(4H)-yl)acetic acid], for which the IC50 was 25 to 100 nM.

For the compound `O=C(c1nc2c(s1)CN(CCO)CC2)N1CCc2c(-c3ccc4c(c3)OCCO4)cccc21` [Example 56, (4-(2,3-dihydrobenzo[b][1,4]dioxin-6-yl)indolin-1-yl)(5-(2-hydroxyethyl)-4,5,6,7-tetrahydrothiazolo[5,4-c]pyridin-2-yl)methanone], the half-maximal inhibitory concentration (IC50) was not above 25 nM.

As for `CN1CCc2nc(C(=O)N3CCc4c(-c5ccc6c(c5)OCCO6)cccc43)sc2C1` [Example 57, (4-(2,3-dihydrobenzo[b][1,4]dioxin-6-yl)indolin-1-yl)(5-methyl-4,5,6,7-tetrahydrothiazolo[5,4-c]pyridin-2-yl)methanone], the IC50 is not above 25 nM.

Regarding `Cc1c(Nc2nccc3cc(CN4CCCC[C@H]4C(=O)O)cnc23)cccc1-c1cccc2c1CCN2C(=O)c1nc2c(s1)CNCC2` [Example 58, (S)-1-((8-((2-methyl-3-(1-(4,5,6,7-tetrahydrothiazolo[5,4-c]pyridine-2-carbonyl)indolin-4-yl)phenyl)amino)-1,7-naphthyridin-3-yl)methyl)piperidine-2-carboxylic acid], the half-inhibitory concentration (IC50) is not above 25 nM.
